Assay: xn = mol fraction of the nth substance listed

C1COCO1 + CCCCO
viscosity [mPa·s], 101 kPa
Conditions	298.15 K	303.15 K	313.15 K
x1 = 0.1001	–	1.74	–
x1 = 0.1022	1.884	–	1.354
x1 = 0.1981	1.493	–	1.109
x1 = 0.2001	–	1.373	–
x1 = 0.3001	–	1.113	–
x1 = 0.3055	1.201	–	0.9166
x1 = 0.4001	–	0.9587	–
x1 = 0.4054	1.014	–	0.7915
x1 = 0.5001	–	0.8419	–
x1 = 0.5008	0.8912	–	0.7023
x1 = 0.6001	–	0.7305	–
x1 = 0.6035	0.7757	–	0.6292
x1 = 0.7001	–	0.6582	–
x1 = 0.7024	0.6998	–	0.5763
x1 = 0.8001	–	0.6192	–
x1 = 0.8009	0.6441	–	0.5372
x1 = 0.9001	–	0.5873	–
x1 = 0.9002	0.6073	–	0.5116

CN(C)P(=O)(N(C)C)N(C)C + CCCCO
303.15 K, 101.3 kPa
Conditions	viscosity [mPa·s]
x1 = 0.0872	2.283
x1 = 0.1988	2.312
x1 = 0.2977	2.351
x1 = 0.3888	2.404
x1 = 0.4941	2.487
x1 = 0.5894	2.567
x1 = 0.6891	2.655
x1 = 0.7954	2.745
x1 = 0.8991	2.834

CC(=O)c1ccccc1 + CCCCOC(C)=O
viscosity [mPa·s], 101 kPa
Conditions	x2 = 0.0904	x2 = 0.1786	x2 = 0.2746	x2 = 0.37	x2 = 0.4671	x2 = 0.5675	x2 = 0.672	x2 = 0.7729	x2 = 0.8848
298.15 K	1.557	1.452	1.341	1.232	1.129	1.028	0.933	0.848	0.763
303.15 K	1.405	1.312	1.212	1.115	1.024	0.934	0.849	0.772	0.696
308.15 K	1.29	1.207	1.119	1.034	0.95	0.87	0.792	0.724	0.655
313.15 K	1.188	1.112	1.032	0.954	0.877	0.804	0.734	0.671	0.608

C1COCO1 + CCCCOCCO
298.15 K, 101 kPa
Conditions	viscosity [mPa·s]
x1 = 0.1506	2.2
x1 = 0.2851	1.773
x1 = 0.4061	1.465
x1 = 0.5154	1.229
x1 = 0.6147	1.053
x1 = 0.7053	0.9156
x1 = 0.7882	0.8012
x1 = 0.8645	0.7116
x1 = 0.9349	0.6419

CCCOCC(C)O (configuration not stated) + CCCNCCC
viscosity [mPa·s], 100 kPa
Conditions	298.15 K	303.15 K	308.15 K
x1 = 0.0501	0.5507	0.5133	0.4872
x1 = 0.1003	0.6065	0.556	0.5257
x1 = 0.1502	0.6545	0.6056	0.571
x1 = 0.1999	0.7308	0.6597	0.6196
x1 = 0.3	0.8816	0.7957	0.7427
x1 = 0.4	1.089	0.969	0.894
x1 = 0.4999	1.294	1.144	1.052
x1 = 0.6	1.558	1.351	1.228
x1 = 0.6999	1.823	1.571	1.415
x1 = 0.7997	2.079	1.784	1.603
x1 = 0.8999	2.275	1.945	1.748
x1 = 0.9498	2.357	2.016	1.815

Reference: the CheMixHub viscosity set
